Measurements reported in patent US10273233B2, “Inhibitors of influenza viruses replication” (Vertex Pharmaceuticals Incorporated, priority 2015, dated 2019).
Counter-ions that a name gives are not always drawn. Like-named read-outs stand apart in the source and are kept apart here.

Tests used:
influenza A = experiment: Influenza A mouse model, Compound (1) with or without oseltamivir; format: in vivo, Mice
Experimental: Referring to FIG. 32, the potential for a positive therapeutic interaction between Compound (1) and oseltamivir against influenza A was explored in the mouse model. Mice were challenged with influenza A and dosed with vehicle (10 mL/kg 0.5% MC) or Compound (1) at 1, 3, 10, or 30 mg/kg BID alone, or in combination with 10 mg/kg BID oseltamivir. Therapy was started 48 hours post influenza A infection and continued for 10 days. All of the vehicle-treated controls succumbed to disease by study day 8 (Table 21).

Structure (SMILES)	Final Form (SGF (pH --1.5), 5 min)	concentration, two-stage in vitro dissolution (SGF (pH --1.5), 5 min)	Final Form (SGF (pH --1.5), 15 min)	concentration, two-stage in vitro dissolution (SGF (pH --1.5), 15 min)	Final Form (SGF (pH --1.5), 30 min)	concentration, two-stage in vitro dissolution (SGF (pH --1.5), 30 min)	Final Form (SGF (pH --1.5), 60 min)	concentration, two-stage in vitro dissolution (SGF (pH --1.5), 60 min)	Final Form (SIF (no pH Adjustment), 75 min)	concentration, two-stage in vitro dissolution (SIF (no pH Adjustment), 75 min)	Final Form (SIF (no pH Adjustment), 90 min)	concentration, two-stage in vitro dissolution (SIF (no pH Adjustment), 90 min)	Final Form (SIF (pH --6.4), 105 min)	concentration, two-stage in vitro dissolution (SIF (pH --6.4), 105 min)	Final Form (SIF (pH --6.4), 120 min)	concentration, two-stage in vitro dissolution (SIF (pH --6.4), 120 min)	Final Form (SIF (pH --6.4), 150 min)	concentration, two-stage in vitro dissolution (SIF (pH --6.4), 150 min)	Final Form (SIF (pH --6.4), 180 min)	concentration, two-stage in vitro dissolution (SIF (pH --6.4), 180 min)	other results
CC(C)(C)[C@@H](CC(=O)O)Nc1nc(-c2c[nH]c3ncc(F)cc23)ncc1F [FF Lot 7]	H3	2.053	H3	1.278	H3	2.031	H3	2.40	H3	0.163	H3	0.148	H3	1.588	H3	1.534	H3	1.058	H3	0.971	Final Form (SIF (pH --6.4), 240 min): H3; concentration, two-stage in vitro dissolution (SIF (pH --6.4), 240 min): 1.497
CC(C)(C)[C@@H](CC(=O)O)Nc1nc(-c2c[nH]c3ncc(F)cc23)ncc1F [H2SO4 Salt]	H2SO4	0.407	H2SO4	0.407	H2SO4	0.417	H2SO4	0.399	H2	0.242	H2	0.236	H2	1.373	H2	1.284	H2	0.396	H2	0.652	Final Form (SIF (pH --6.4), 240 min): H2; concentration, two-stage in vitro dissolution (SIF (pH --6.4), 240 min): 0.789
CC(C)(C)[C@@H](CC(=O)O)Nc1nc(-c2c[nH]c3ncc(F)cc23)ncc1F [HCl Salt]	Amorphous	14.664	Amorphous	16.565	Amorphous	14.808	Amorphous	15.135	H2	0.747	H2	0.964	H2	0.474	H2	0.477	H2	0.749	H2	0.340	Final Form (SIF (pH --6.4), 240 min): H2; concentration, two-stage in vitro dissolution (SIF (pH --6.4), 240 min): 0.395
CCOC(=O)C1=C[C@@H](OC(CC)CC)[C@H](NC(C)=O)[C@@H](N)C1 [Oseltamivir, oseltamivir, reference compound]	–	–	–	–	–	–	–	–	–	–	–	–	–	–	–	–	–	–	–	–	Percent Survival (influenza A; Oseltamivir 10 mg/kg BID alone, started +48 hours after infection, 10 days): 0%; protection from mortality (influenza A; administered alone: Compound (1) 1 mg/kg BID, oseltamivir 10 mg/kg): failed to protect mice from influenza infection
